The subject of this experiment is HCV genotype 1b replicon. In words: HCV replicon assay, cell ELISA with antibody to replicon-encoded NS3/4A (genotype 1b replicon). The class given is cell-based, hepatitis C virus. The conditions noted are these: Hepatitis C virus, 96 h, read-out: Replicon 1b IC50 (nM), HCV genotype 1b replicon cells, 96 hours incubation, NS3/4A ELISA readout. The procedure: The HCV NS5B inhibitory activity of the present compounds may be tested using assays known in the art. The HCV NS5B polymerase inhibitors described herein have activities in a genotype 1b replicon assay as described in the Examples. The assay is performed by incubating a replicon harboring cell-line in the presence of inhibitor for a set period of time and measuring the effect of the inhibitor on HCV replicon replication either directly by quantifying replicon RNA level, or indirectly by measuring enzymatic activity of a co-encoded reporter enzyme such as luciferase or β-lactamase. By performing a series of such measurements at different inhibitor concentrations, the effective inhibitory concentration of the inhibitor (EC50 or EC90) is determined. See Jan M. Vrolijk et al., A replicons-based bioassay for the measurement of interferons in patients with chronic hepatitis C, 110 J. VIROLOGICAL METHODS 201 (2003). Such assays may also be run in an automated format for high through-put screening. See Paul Zuck et al., A cell-based β-lactamase reporter gene assay for the identification of inhibitors of hepatitis C virus replication, 334 ANALYTICAL BIOCHEMISTRY 344 (2004).
Measurement of inhibition by compounds was performed using the HCV replicon system. Several different replicons encoding different HCV genotypes or mutations were used. In addition, potency measurements were made using different formats of the replicon assay, including different ways of measurements and different plating formats. See Jan M. Vrolijk et al., A replicons-based bioassay for the measurement of interferons in patients with chronic hepatitis C, 110 J. VIROLOGICAL METHODS 201 (2003); Steven S. Carroll et al., Inhibition of Hepatitis C Virus RNA Replication by 2′-Modified Nucleoside Analogs, 278(14) J. BIOLOGICAL CHEMISTRY 11979 (2003). However, the underlying principles are common to all of these determinations, and are outlined below.
Stable neomycin phosphotransferase encoding replicons-harboring cell lines were used, so all cell lines were maintained under G418 selection prior to the assay. Potency was determined using a cell ELISA assay with an antibody to the replicons encoded NS3/4a protease. See Caterina Trozzi et al., In Vitro Selection and Characterization of Hepatitis C Virus Serine Protease Variants Resistant to an Active-Site Peptide Inhibitor, 77(6) J. Virol. 3669 (2003). To initiate an assay, replicon cells were plated in the presence of a dilution series of test compound in the absence of G418. Typically, the assays were performed in a 96-well plate formate for manual operation, or a 384-well plate format for automated assay. Replicon cells and compound were incubated for 96 hours. At the end of the assay, cells were washed free of media and compound, and the cells were then lysed. RNA was quantified indirectly through detection of replicon-encoded NS3/4A protein levels, through an ELISA-based assay with an antibody specific for NS3/4A. IC50 determinations were calculated as a percentage of a DMSO control by fitting the data to a four-parameter fit function and the data obtained is provided in the table below.
With `CNC(=O)c1c(-c2ccc(F)cc2)oc2cc(N(CCC(C)C)S(C)(=O)=O)c(-c3ccccc3)cc12` [Example 18, 2-(4-fluorophenyl)-N-methyl-6-[(3-methylbutyl) (methylsulfonyl)amino]-5-phenyl-1-benzofuran-3-carboxamide], the IC50 worked out at 41 nM.
To `CCC(C)CN(c1cc2oc(-c3ccc(F)cc3)c(C(=O)NC)c2cc1-c1ccccc1)S(C)(=O)=O` (centres unmarked) [Example 19, 2-(4-fluorophenyl)-N-methyl-6-[(2-methylbutyl) (methylsulfonyl)amino]-5-phenyl-1-benzofuran-3-carboxamide] belongs 227 nM; to `CCCCCN(c1cc2oc(-c3ccc(F)cc3)c(C(=O)NC)c2cc1-c1ccccc1)S(C)(=O)=O` [Example 20, 2-(4-fluorophenyl)-N-methyl-6-[(methylsulfonyl) (pentyl)amino]-5-phenyl-1-benzofuran-3-carboxamide], 66 nM.
For `CNC(=O)c1c(-c2ccc(F)cc2)oc2cc(N(CC3CCC3)S(C)(=O)=O)c(-c3ccccc3)cc12` [Example 21, 6-[(cyclobutylmethyl) (methylsulfonyl)amino]-2-(4-fluorophenyl)-N-methyl-5-phenyl-1-benzofuran-3-carboxamide], the IC50 was 115 nM.
Consider `CNC(=O)c1c(-c2ccc(F)cc2)oc2cc(N(C3CCCC3)S(C)(=O)=O)c(-c3ccccc3)cc12` [Example 22, 6-[cyclopentyl (methylsulfonyl)amino]-2-(4-fluorophenyl)-N-methyl-5-phenyl-1-benzofuran-3-carboxamide], for which the IC50 amounted to 55 nM.
Turning to `CCC(CC)CN(c1cc2oc(-c3ccc(F)cc3)c(C(=O)NC)c2cc1-c1ccccc1)S(C)(=O)=O` [Example 23, 6-[(2-ethylbutyl) (methylsulfonyl)amino]-2-(4-fluorophenyl)-N-methyl-5-phenyl-1-benzofuran-3-carboxamide], the IC50 is 374 nM.
To `CCCCCCN(c1cc2oc(-c3ccc(F)cc3)c(C(=O)NC)c2cc1-c1ccccc1)S(C)(=O)=O` [Example 24, 2-(4-fluorophenyl)-6-[hexyl (methylsulfonyl)amino]-N-methyl-5-phenyl-1-benzofuran-3-carboxamide] belongs 182 nM.
With `CNC(=O)c1c(-c2ccc(F)cc2)oc2cc(N(CCCC(C)C)S(C)(=O)=O)c(-c3ccccc3)cc12` [Example 25, 2-(4-fluorophenyl)-N-methyl-6-[(4-methylpentyl) (methylsulfonyl)amino]-5-phenyl-1-benzofuran-3-carboxamide], the IC50 worked out at 166 nM.
To `CNC(=O)c1c(-c2ccc(F)cc2)oc2cc(N(CCC3CCCCC3)S(C)(=O)=O)c(-c3ccccc3)cc12` [Example 27, 6-[(2-cyclohexylethyl) (methylsulfonyl)amino]-2-(4-fluorophenyl)-N-methyl-5-phenyl-1-benzofuran-3-carboxamide] belongs 384 nM; to `CNC(=O)c1c(-c2ccc(F)cc2)oc2cc(N(CCCO)S(C)(=O)=O)c(-c3ccccc3)cc12` [Example 28, 2-(4-fluorophenyl)-6-[(3-hydroxypropyl) (methylsulfonyl)amino]-N-methyl-5-phenyl-1-benzofuran-3-carboxamide], 46 nM; to `CNC(=O)c1c(-c2ccc(F)cc2)oc2cc(N(CC(C)O)S(C)(=O)=O)c(-c3ccccc3)cc12` (centres unmarked) [Example 29, 2-(4-fluorophenyl)-6-[(2-hydroxypropyl) (methylsulfonyl)amino]-N-methyl-5-phenyl-1-benzofuran-3-carboxamidc], 412 nM.
In the case of `CNC(=O)c1c(-c2ccc(F)cc2)oc2cc(N(CCCCOC(C)=O)S(C)(=O)=O)c(-c3ccccc3)cc12` [Example 30, 4-{[2-(4-fluorophenyl)-3-(methylcarbamoyl)-5-phenyl-1-benzofuran-6-yl] (methylsulfonyl)amino}butyl acetate], the IC50 was determined as 40 nM.
To `C#CCN(c1cc2oc(-c3ccc(F)cc3)c(C(=O)NC)c2cc1-c1ccccc1)S(C)(=O)=O` [Example 34, 2-(4-fluorophenyl)-N-methyl-6-[(methylsulfonyl) (prop-2-yn-1-yl)amino]-5-phenyl-1-benzofuran-3-carboxamide] belongs 189 nM; to `C=CCN(c1cc2oc(-c3ccc(F)cc3)c(C(=O)NC)c2cc1-c1ccccc1)S(C)(=O)=O` [Example 35, 2-(4-fluorophenyl)-N-methyl-6-[(methylsulfonyl) (prop-2-en-1-yl)amino]-5-phenyl-1-benzofuran-3-carboxamide], 7 nM.
Consider `CNC(=O)c1c(-c2ccc(F)cc2)oc2cc(N(CCC=C(C)C)S(C)(=O)=O)c(-c3ccccc3)cc12` [Example 40, 2-(4-fluorophenyl)-N-methyl-6-[(4-methylpent-3-en-1-yl)(methylsulfonyl)amino]-5-phenyl-1-benzofuran-3-carboxamide], for which the IC50 came to 90 nM.
To `CCOC(=O)CN(c1cc2oc(-c3ccc(F)cc3)c(C(=O)NC)c2cc1-c1ccccc1)S(C)(=O)=O` [Example 41, ethyl N-[2-(4-fluorophenyl)-3-(methylcarbamoyl)-5-phenyl-1-benzofuran-6-yl]-N-(methylsulfonyl) glycinate] belongs over 2000 nM.
To `CCOC(=O)CCCN(c1cc2oc(-c3ccc(F)cc3)c(C(=O)NC)c2cc1-c1ccccc1)S(C)(=O)=O` [Example 42, ethyl 4-{[2-(4-fluorophenyl)-3-(methylcarbamoyl)-5-phenyl-1-benzofuran-6-yl](methylsulfonyl)amino}butanoate] belongs 60 nM; to `CNC(=O)c1c(-c2ccc(F)cc2)oc2cc(N(Cc3cccc(F)c3)S(C)(=O)=O)c(-c3ccccc3)cc12` [Example 53, 6-[(3-fluorobenzyl)(methyl-sulfonyl)amino]-2-(4-fluorophenyl)-N-methyl-5-phenyl-1-benzofuran-3-carboxamide], 373 nM; to `CNC(=O)c1c(-c2ccc(F)cc2)oc2cc(NC(C)c3ccccc3)c(-c3ccccc3)cc12` (centres unmarked) [Example 69, 2-(4-fluorophenyl)-N-methyl-5-phenyl-6-[(1-phenylethyl)amino]-1-benzofuran-3-carboxamide], over 3000 nM.
To `CNC(=O)c1c(-c2ccc(F)cc2)oc2cc(NCCN(C)c3ccccc3)c(-c3ccccc3)cc12` [Example 70, 2-(4-fluorophenyl)-N-methyl-6-({2-[methyl(phenyl)amino]ethyl}amino)-5-phenyl-1-benzofuran-3-carboxamide] belongs 329 nM; to `CNC(=O)c1c(-c2ccc(F)cc2)oc2cc(N(C)C(C)c3ccccc3)c(-c3ccccc3)cc12` (centres unmarked) [Example 71, 2-(4-fluorophenyl)-N-methyl-6-[methyl(1-phenylethyl)amino]-5-phenyl-1-benzofuran-3-carboxamide], over 2500 nM; to `CCOC(=O)N(CCN(C)c1ccccc1)c1cc2oc(-c3ccc(F)cc3)c(C(=O)NC)c2cc1-c1ccccc1` [Example 72, ethyl[2-(4-fluorophenyl)-3-(methylcarbamoyl)-5-phenyl-1-benzofuran-6-yl]{2-[methyl(phenyl)amino]ethyl}carbamate], 2670 nM.
Take `CNC(=O)c1c(-c2ccc(F)cc2)oc2cc(NC(=O)CN(C)c3ccccc3)c(-c3ccccc3)cc12` [Example 73]: the IC50 was found to be 143 nM.
Then `CNC(=O)c1c(-c2ccc(F)cc2)oc2cc(N(C)C(=O)CN(C)c3ccccc3)c(-c3ccccc3)cc12` [Example 74, 2-(4-fluorophenyl)-N-methyl-6-[methyl(N-methyl-N-phenylglycyl)amino]-5-phenyl-1-benzofuran-3-carboxamide], with 395 nM; and `CNC(=O)c1c(-c2ccc(F)cc2)oc2cc(N3C(=O)O[C@H](c4ccccc4)[C@@H]3C)c(-c3ccccc3)cc12` [Example 77, 2-(4-fluorophenyl)-N-methyl-6-[(4S,5R)-4-methyl-2-oxo-5-phenyl-1,3-oxazolidin-3-yl]-5-phenyl-1-benzofuran-3-carboxamide], with 101 nM; and `CNC(=O)c1c(-c2ccc(F)cc2)oc2cc(N(C)S(C)(=O)=O)c(-c3ccccc3F)cc12` [Example 78, 5-(2-fluorophenyl)-2-(4-fluorophenyl)-N-methyl-6-[methyl(methylsulfonyl)amino]-1-benzofuran-3-carboxamide], with 215 nM.

These data come from patent US20120328569A1, “INHIBITORS OF HEPATITIS C VIRUS NS5B POLYMERASE” (priority 2010, published 2012).
